Source: patent US10251841B2, “Polymeric depots for localization of agent to biological sites” (TRUSTEES OF BOSTON UNIVERSITY, priority 2011, dated 2019)

Assays:
Experiment in all cases: Cell proliferation assay, MTT, 5 days
Details in all cases: media containing 10% FBS
Melanoma = format: cell-based, murine
Method: (§1) Melanoma B16 (murine), Calu 6 (human lung carcinoma), A549 (human lung carcinoma), LLC (murine Lewis Lung Carcinoma), NCI-H460 (human lung), MSTO-211H (human mesothelioma), MSTO-211H-Luc (luciferase transfected human mesothelioma), MCF7 (human breast), LMS05 (human sarcoma) were incubated (37° C., 5% CO2) with MEM (with 10% fetal bovine serum (FBS), 1% essential amino acids, and 1% Penicillin/Streptomyocin with L glutamine (Pen/Strep), F-12 HAM (with 10% FBS and 1% Pen/Strep), DMEM (with 10% FBS and 1% Pen/Strep) media, or DMEM (with 10% FBS and 1% GPS), with media changes once every three days. When not cultured, all cell lines were stored in RPMI freezing media at −80° C. (with 50% FBS, 40% RPMI and 10% dimethyl sulfoxide (DMSO)). Cell lines were trypsinized from the plates and seeded into 96 well plates at a concentration of 3000 cells per well. All cell lines were cultured for a period of at least seven days before being tested in cell uptake or proliferation assays etc.
(§2) Cell proliferation assays testing the effects of paclitaxel encapsulated within nanoparticles were performed using three tumor cell lines. Lewis Lung Carcinoma (LLC), Melanoma, and Calu6 (human lung cancer) cell lines were plated at 3,000 cells/well and when established, cultured in media with/without paclitaxel. […] At the end of 5 days, tumor cell proliferation was assessed via MTT analysis. […]

[1] = test system: Lewis Lung Carcinoma (LLC); format: cell-based, murine
Method: as §1, §2

[2] = test system: Calu6 (human lung cancer); format: cell-based
Method: as §1, §2

Measured: concentration that reliably inhibits growth

CC(=O)O[C@H]1C(=O)[C@@]2(C)[C@H]([C@H](OC(=O)c3ccccc3)[C@]3(O)C[C@H](OC(=O)[C@H](O)[C@@H](NC(=O)c4ccccc4)c4ccccc4)C(C)=C1C3(C)C)[C@]1(OC(C)=O)CO[C@@H]1C[C@@H]2O [paclitaxel]
1 to 10 ng/mL: all assays above
